Active and inactive are the calls of the source. The rule behind the calls is not given here.
System: CCRIS mutagenicity, Ames/micronucleus/aberration tests
Experiment: CCRIS mutagenicity studies
[1] = Test System: AMES SALMONELLA TYPHIMURIUM, Strain/Indicator: TA98, Metabolic Activation: NONE, Method: PREINCUBATION
[2] = Test System: AMES SALMONELLA TYPHIMURIUM, Strain/Indicator: TA98, Metabolic Activation: RAT, LIVER, S-9, PHENOBARBITAL AND 5,6-BENZOFLAVONE, Method: PREINCUBATION
[3] = Test System: AMES SALMONELLA TYPHIMURIUM, Strain/Indicator: TA100, Metabolic Activation: RAT, LIVER, S-9, PHENOBARBITAL AND 5,6-BENZOFLAVONE, Method: PREINCUBATION
[4] = Test System: AMES SALMONELLA TYPHIMURIUM, Strain/Indicator: TA98(NR), Metabolic Activation: NONE, Method: PREINCUBATION

CC(C)Br
mutagenic call (End Point: In vitro micronucleus, Test System: Chinese Hamster Ovary (CHO-WBL) cells, Metabolic Activation: None): inactive; negative
mutagenic call [1]: inactive; negative
mutagenic call (Test System: AMES SALMONELLA TYPHIMURIUM, Strain/Indicator: TA98, Metabolic Activation: RAT LIVER S-9, PHENOBARBITAL AND BETA-NAPHTHOFLAVONE, Method: PREINCUBATION): inactive; negative
mutagenic call [2]: inactive; negative
mutagenic call [3]: active; positive
mutagenic call (Test System: AMES SALMONELLA TYPHIMURIUM, Strain/Indicator: TA1535, Metabolic Activation: NONE, Method: PREINCUBATION): active; positive
mutagenic call (Test System: AMES SALMONELLA TYPHIMURIUM, Strain/Indicator: TA1535, Metabolic Activation: RAT LIVER S-9, PHENOBARBITAL AND BETA-NAPHTHOFLAVONE, Method: PREINCUBATION): active; positive
mutagenic call (Test System: AMES SALMONELLA TYPHIMURIUM, Strain/Indicator: TA1535, Metabolic Activation: RAT, LIVER, S-9, PHENOBARBITAL AND 5,6-BENZOFLAVONE, Method: PREINCUBATION): active; positive
mutagenic call (Test System: AMES SALMONELLA TYPHIMURIUM, Strain/Indicator: TA1537, Metabolic Activation: NONE, Method: PREINCUBATION): inactive; negative
mutagenic call (Test System: AMES SALMONELLA TYPHIMURIUM, Strain/Indicator: TA1537, Metabolic Activation: RAT LIVER S-9, PHENOBARBITAL AND BETA-NAPHTHOFLAVONE, Method: PREINCUBATION): inactive; negative
mutagenic call (Test System: AMES SALMONELLA TYPHIMURIUM, Strain/Indicator: TA1537, Metabolic Activation: RAT, LIVER, S-9, PHENOBARBITAL AND 5,6-BENZOFLAVONE, Method: PREINCUBATION): inactive; negative
mutagenic call (Test System: E. COLI, Strain/Indicator: WP2 UVRA, Metabolic Activation: NONE, Method: PREINCUBATION): inactive; negative
mutagenic call (Test System: E. COLI, Strain/Indicator: WP2 UVRA, Metabolic Activation: RAT, LIVER, S-9, PHENOBARBITAL AND 5,6-BENZOFLAVONE, Method: PREINCUBATION): inactive; negative

CC(=O)OCC(=O)[C@@]1(OC(C)=O)CC[C@H]2[C@@H]3C[C@@H](F)C4=CC(=O)C(Br)=C[C@]4(C)[C@@]3(F)[C@@H](O)C[C@@]21C
mutagenic call (Test System: AMES SALMONELLA TYPHIMURIUM, Strain/Indicator: TA98, Metabolic Activation: NONE): inactive; negative
mutagenic call (Test System: AMES SALMONELLA TYPHIMURIUM, Strain/Indicator: TA98, Metabolic Activation: S-9): inactive; negative
mutagenic call (Test System: AMES SALMONELLA TYPHIMURIUM, Strain/Indicator: TA100, Metabolic Activation: NONE): inactive; negative
mutagenic call (Test System: AMES SALMONELLA TYPHIMURIUM, Strain/Indicator: TA100, Metabolic Activation: S-9): inactive; negative
mutagenic call (Test System: AMES SALMONELLA TYPHIMURIUM, Strain/Indicator: TA1535, Metabolic Activation: NONE): inactive; negative
mutagenic call (Test System: AMES SALMONELLA TYPHIMURIUM, Strain/Indicator: TA1535, Metabolic Activation: S-9): inactive; negative
mutagenic call (Test System: AMES SALMONELLA TYPHIMURIUM, Strain/Indicator: TA1537, Metabolic Activation: NONE): inactive; negative
mutagenic call (Test System: AMES SALMONELLA TYPHIMURIUM, Strain/Indicator: TA1537, Metabolic Activation: S-9): inactive; negative
mutagenic call (Test System: AMES SALMONELLA TYPHIMURIUM, Strain/Indicator: TA1538, Metabolic Activation: NONE): inactive; negative
mutagenic call (Test System: E. COLI, Strain/Indicator: WP2, Metabolic Activation: NONE): inactive; negative
mutagenic call (Test System: E. COLI, Strain/Indicator: WP2, Metabolic Activation: S-9): inactive; negative
mutagenic call (Test System: E. COLI, Strain/Indicator: WP2 UVRA, Metabolic Activation: NONE): inactive; negative
mutagenic call (Test System: E. COLI, Strain/Indicator: WP2 UVRA, Metabolic Activation: S-9): inactive; negative

O=[N+]([O-])c1ccc2ccc3cccc4c3c2c1C1OC41 (centres undefined)
mutagenic call (Test System: AMES SALMONELLA TYPHIMURIUM, Strain/Indicator: TA98(1,8-DNP6), Metabolic Activation: RAT, LIVER, S-9, PHENOBARBITAL AND 5,6-BENZOFLAVONE, Method: PREINCUBATION): active; positive
mutagenic call [4]: active; positive
mutagenic call [1]: active; positive
mutagenic call [2]: inactive; negative
mutagenic call (Test System: AMES SALMONELLA TYPHIMURIUM, Strain/Indicator: TA100, Metabolic Activation: NONE, Method: PREINCUBATION): active; positive
mutagenic call [3]: inactive; negative
mutagenic call (Test System: CHINESE HAMSTER OVARY, Strain/Indicator: CHO (HGPRT)/6-THIOGUANINE, Metabolic Activation: NONE, Method: STANDARD PLATE): active; positive
mutagenic call (Test System: CHINESE HAMSTER OVARY, Strain/Indicator: CHO (HGPRT)/6-THIOGUANINE, Metabolic Activation: RAT, LIVER, S-9, AROCLOR 1254, Method: STANDARD PLATE): active; positive
mutagenic call (Test System: UDS RODENT HEPATOCYTES, Strain/Indicator: THY INCORP, Metabolic Activation: NONE, Method: AUTORADIOGRAPHY): active; positive

O=[N+]([O-])c1ccc2c(c1)-c1ccccc1C2
mutagenic call (End Point: IN VITRO CHROMOSOMAL ABERRATIONS, Test System: CHINESE HAMSTER LUNG (CHL) CELLS, Metabolic Activation: NONE): inactive; negative
mutagenic call (End Point: IN VITRO CHROMOSOMAL ABERRATIONS, Test System: CHINESE HAMSTER LUNG (CHL) CELLS, Metabolic Activation: RAT, LIVER, S-9, KC-400): active; positive
mutagenic call (Test System: AMES SALMONELLA TYPHIMURIUM, Strain/Indicator: TA98 (1,8-DNP6), Metabolic Activation: NONE, Method: PREINCUBATION): active; positive
mutagenic call [4]: active; positive
mutagenic call (Test System: AMES SALMONELLA TYPHIMURIUM, Strain/Indicator: TA98(NR), Metabolic Activation: RAT LIVER S-9 (10%), Method: PREINCUBATION): active; positive
mutagenic call (Test System: AMES SALMONELLA TYPHIMURIUM, Strain/Indicator: TA98 (NR), Metabolic Activation: RAT LIVER S-9, 3-METHYLCHOLANTHRENE (10%), Method: PREINCUBATION): active; positive
mutagenic call (Test System: AMES SALMONELLA TYPHIMURIUM, Strain/Indicator: TA98(NR), Metabolic Activation: RAT LIVER S-9, BETA-NAPHTHAFLAVONE (10%), Method: PREINCUBATION): active; positive
mutagenic call (Test System: AMES SALMONELLA TYPHIMURIUM, Strain/Indicator: TA98(NR), Metabolic Activation: RAT LIVER S-9, PCB (10%), Method: PREINCUBATION): active; positive
mutagenic call (Test System: AMES SALMONELLA TYPHIMURIUM, Strain/Indicator: TA98(NR), Metabolic Activation: RAT LIVER S-9, PHENOBARBITAL (10%), Method: PREINCUBATION): active; positive
mutagenic call [1]: active; positive

Clc1c2ccccc2cc2c1ccc1ccccc12
mutagenic call (Test System: AMES SALMONELLA TYPHIMURIUM, Strain/Indicator: TA98, Metabolic Activation: RAT, LIVER, S-9, AROCLOR 1254, Method: STANDARD PLATE): active; positive
mutagenic call (Test System: AMES SALMONELLA TYPHIMURIUM, Strain/Indicator: TA100, Metabolic Activation: RAT, LIVER, S-9, AROCLOR 1254, Method: STANDARD PLATE): active; positive
mutagenic call (Test System: AMES SALMONELLA TYPHIMURIUM, Strain/Indicator: TA100, Metabolic Activation: RAT, LIVER, S-9, PCB, Method: STANDARD PLATE): active; positive

C=CCOc1ccccc1OCC(O)CN(N=O)C(C)C (centres undefined)
mutagenic call (Test System: CHINESE HAMSTER V-79, Strain/Indicator: V-79/6-THIOGUANINE, Metabolic Activation: NONE, Method: REPLATING): inactive; negative
mutagenic call (Test System: CHINESE HAMSTER V-79, Strain/Indicator: V-79/6-THIOGUANINE, Metabolic Activation: RAT, HEPATOCYTES, Method: REPLATING): active; positive
mutagenic call (Test System: CHINESE HAMSTER V-79, Strain/Indicator: V-79/OUABAIN, Metabolic Activation: NONE): inactive; negative
mutagenic call (Test System: CHINESE HAMSTER V-79, Strain/Indicator: V-79/OUABAIN, Metabolic Activation: RAT, HEPATOCYTES): inactive; negative
mutagenic call (Test System: UDS HUMAN HEPATOCYTES, Strain/Indicator: THY INCORP, Metabolic Activation: NONE, Method: AUTORADIOGRAPHY): active; positive
mutagenic call (Test System: UDS RAT HEPATOCYTES, Strain/Indicator: THY INCORP, Metabolic Activation: NONE, Method: AUTORADIOGRAPHY): active; positive
